Structures can show the parent of a compound that is named as a salt. Where two headings read alike, the source gives them in different places.

For data set [1] the following is noted: cited from earlier work.
The nature of data set [2]: Naltrexone HCl excipient compatibility (stressed stability) study, assay and impurities. The class given is physicochemical. The procedure: An excipient compatibility study was designed and conducted to screen excipients for the low dose naltrexone HCl delayed release capsules for formulation development purposes. Based on the formulation approach of a multi-particulate system filled in capsule dosage form, the drug layered spheres were coated with a functional pH dependent polymer film.
The physical mixtures were prepared by weighing individual material into glass crimp vials and mixing using a vortex. The open samples were left open and closed samples were tightly closed using a crimper.

The conditions of data set [3]: cited from earlier work. The source holds these as a separate data set.
The mark [4] stands for this setting: 40° C./ 75% RH - Closed - 2 weeks.
[5] abbreviates: 40° C./ 75% RH - Open - 2 weeks.

Take `C=CCN1CC[C@]23c4c5ccc(O)c4OC2C(=O)CC[C@@]3(O)[C@H]1C5` (stereo partly drawn) [Naloxone hydrochloride, 17-allyl-4,5 α-epoxy, 3-14-dihydroxymorphinan-6-one hydrochloride]: the solubility entry in data set [1] (in alcohol) was “slightly soluble”; in data set [1] (in ether and in chloroform) it was “practically insoluble”; in data set [1] (in water, in dilute acids, and in strong alkali) it was “soluble”.

As for `O=C1CC[C@@]2(O)[C@H]3Cc4ccc(O)c5c4[C@@]2(CCN3CC2CC2)[C@H]1O5` [Naltrexone Control], the “Assay (%)” value in data set [2] (setting [4]) is listed as 99.3%; in data set [2] (setting [5]), 101.5%; in data set [2] (Initial), 99.4%. Also, the “Impurities (%)” value came to 0.6% in data set [2] (setting [4]), 0.6% in data set [2] (setting [5]) and 0.4% in data set [2] (Initial).

A word on the half-life: it is the time needed for the level to fall by half in the phase considered. `C=CCN1CC[C@]23c4c5ccc(O)c4O[C@H]2C(=O)CC[C@@]3(O)[C@H]1C5` [naloxone]: the half-life in data set [3] (in vivo) is 3 h. The oral bioavailability in data set [3] (oral) is reported as ~3%.

(Values after patent US20230372328A1, “ORAL DELAYED BURST FORMULATION OF LOW-DOSE NALTREXONE AND METHODS FOR TREATING FIBROMYALGIA AND LONG COVID” (Scilex Holding Company, priority 2020, published 2023).)
